Laboratory results as given in ChEMBL document CHEMBL4616624, “STAT3 inhibitory activity of naphthoquinones isolated from Tabebuia avellanedae” (Bioorg Med Chem, 2020).
Activity calls are given as the source filed them. The calls are words filed in the database; no cut-off is given here.

Experiments:
[1] = molecular target: T1, Signal transducer and activator of transcription 3 (Homo sapiens, UniProt P40763); assay: Inhibition of IL-6 induced STAT3 phosphorylation at Tyr705 residue in human MCF7 cells assessed as phosphorylation intensity level at 0.5 uM preincubated for 1 hr followed by IL-6 stimulation and measured after 1 hr by Western blot analysis; type: cell-based; parameters: scale not given: the % may be the effect or the level left
T1 sequence (P40763 whole entry): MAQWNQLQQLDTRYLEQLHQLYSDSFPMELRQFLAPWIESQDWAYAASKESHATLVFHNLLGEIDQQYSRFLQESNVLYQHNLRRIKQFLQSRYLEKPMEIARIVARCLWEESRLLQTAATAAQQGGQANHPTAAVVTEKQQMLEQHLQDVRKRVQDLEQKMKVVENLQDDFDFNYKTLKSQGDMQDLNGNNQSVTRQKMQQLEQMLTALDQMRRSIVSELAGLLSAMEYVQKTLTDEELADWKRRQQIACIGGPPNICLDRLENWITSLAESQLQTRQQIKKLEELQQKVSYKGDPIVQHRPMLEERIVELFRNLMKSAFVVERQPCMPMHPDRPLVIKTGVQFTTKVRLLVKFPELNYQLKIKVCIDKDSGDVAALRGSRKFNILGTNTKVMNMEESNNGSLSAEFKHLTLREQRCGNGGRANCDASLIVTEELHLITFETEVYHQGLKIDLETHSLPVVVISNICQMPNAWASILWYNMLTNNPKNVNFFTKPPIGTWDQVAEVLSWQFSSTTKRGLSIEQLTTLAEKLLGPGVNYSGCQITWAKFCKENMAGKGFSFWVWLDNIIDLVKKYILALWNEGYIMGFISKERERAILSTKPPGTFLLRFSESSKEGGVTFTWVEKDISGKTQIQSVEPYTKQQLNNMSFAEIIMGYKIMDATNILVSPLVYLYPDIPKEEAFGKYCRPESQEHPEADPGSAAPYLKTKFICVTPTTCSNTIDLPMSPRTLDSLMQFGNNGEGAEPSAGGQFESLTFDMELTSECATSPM

[2] = test system: MDA-MB-231; assay: Inhibition of JAK/STAT signaling in human MDA-MB-231 cells assessed as decrease in STAT3 phosphorylation by measuring phosphorylated intensity level at 0.5 uM incubated for 2 hrs by Western blot analysis (reference value: 100%); type: cell-based; parameters: scale not given: the % may be the effect or the level left
[3] = molecular target: T2, Signal transducer and activator of transcription 1-alpha/beta (Homo sapiens) (UniProt P42224); assay: Inhibition of FAM-G(py)DKPHVL-NH2 binding to GST-tagged STAT1-SH2 domain (unknown origin) preincubated for 15 mins followed by FAM-G(py)DKPHVL-NH2 addition and measured after 30 mins by TR-FRET assay
T2 sequence (whole entry): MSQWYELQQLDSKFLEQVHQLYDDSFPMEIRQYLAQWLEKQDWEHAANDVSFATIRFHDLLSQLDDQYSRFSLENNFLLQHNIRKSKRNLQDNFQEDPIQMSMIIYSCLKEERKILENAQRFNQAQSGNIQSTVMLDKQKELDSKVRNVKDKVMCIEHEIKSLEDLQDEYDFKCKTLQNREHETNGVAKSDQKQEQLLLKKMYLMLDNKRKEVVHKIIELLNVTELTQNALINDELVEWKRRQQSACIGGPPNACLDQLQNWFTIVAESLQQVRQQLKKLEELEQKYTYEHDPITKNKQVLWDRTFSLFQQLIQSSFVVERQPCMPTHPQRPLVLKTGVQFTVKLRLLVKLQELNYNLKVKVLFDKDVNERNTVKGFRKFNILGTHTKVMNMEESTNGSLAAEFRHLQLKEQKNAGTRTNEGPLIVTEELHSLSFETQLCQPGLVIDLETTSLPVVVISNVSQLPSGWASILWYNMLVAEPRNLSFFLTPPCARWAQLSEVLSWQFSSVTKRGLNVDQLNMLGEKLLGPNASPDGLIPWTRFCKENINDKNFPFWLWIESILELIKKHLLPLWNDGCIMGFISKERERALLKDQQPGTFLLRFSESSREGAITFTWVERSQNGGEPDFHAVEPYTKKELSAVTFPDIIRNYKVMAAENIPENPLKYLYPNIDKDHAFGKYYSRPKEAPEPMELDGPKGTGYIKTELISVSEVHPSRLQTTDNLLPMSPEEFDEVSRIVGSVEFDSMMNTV

[4] = molecular target: T1, Signal transducer and activator of transcription 3; assay: Inhibition of FAM-G(py)LPQTV-NH2 binding to GST-tagged STAT3-SH2 domain (unknown origin) preincubated for 15 mins followed by FAM-G(py)LPQTV-NH2 addition and measured after 30 mins by TR-FRET assay
[5] = molecular target: T3, Tyrosine-protein kinase JAK3 (Homo sapiens) (UniProt P52333); assay: Inhibition of human recombinant N-terminal His-tagged JAK3 (795 to 1124 residue) expressed in baculovirus infected Sf21 insect cells up to 100 uM using Srctide as substrate by mobility shift assay
T3 sequence (whole entry): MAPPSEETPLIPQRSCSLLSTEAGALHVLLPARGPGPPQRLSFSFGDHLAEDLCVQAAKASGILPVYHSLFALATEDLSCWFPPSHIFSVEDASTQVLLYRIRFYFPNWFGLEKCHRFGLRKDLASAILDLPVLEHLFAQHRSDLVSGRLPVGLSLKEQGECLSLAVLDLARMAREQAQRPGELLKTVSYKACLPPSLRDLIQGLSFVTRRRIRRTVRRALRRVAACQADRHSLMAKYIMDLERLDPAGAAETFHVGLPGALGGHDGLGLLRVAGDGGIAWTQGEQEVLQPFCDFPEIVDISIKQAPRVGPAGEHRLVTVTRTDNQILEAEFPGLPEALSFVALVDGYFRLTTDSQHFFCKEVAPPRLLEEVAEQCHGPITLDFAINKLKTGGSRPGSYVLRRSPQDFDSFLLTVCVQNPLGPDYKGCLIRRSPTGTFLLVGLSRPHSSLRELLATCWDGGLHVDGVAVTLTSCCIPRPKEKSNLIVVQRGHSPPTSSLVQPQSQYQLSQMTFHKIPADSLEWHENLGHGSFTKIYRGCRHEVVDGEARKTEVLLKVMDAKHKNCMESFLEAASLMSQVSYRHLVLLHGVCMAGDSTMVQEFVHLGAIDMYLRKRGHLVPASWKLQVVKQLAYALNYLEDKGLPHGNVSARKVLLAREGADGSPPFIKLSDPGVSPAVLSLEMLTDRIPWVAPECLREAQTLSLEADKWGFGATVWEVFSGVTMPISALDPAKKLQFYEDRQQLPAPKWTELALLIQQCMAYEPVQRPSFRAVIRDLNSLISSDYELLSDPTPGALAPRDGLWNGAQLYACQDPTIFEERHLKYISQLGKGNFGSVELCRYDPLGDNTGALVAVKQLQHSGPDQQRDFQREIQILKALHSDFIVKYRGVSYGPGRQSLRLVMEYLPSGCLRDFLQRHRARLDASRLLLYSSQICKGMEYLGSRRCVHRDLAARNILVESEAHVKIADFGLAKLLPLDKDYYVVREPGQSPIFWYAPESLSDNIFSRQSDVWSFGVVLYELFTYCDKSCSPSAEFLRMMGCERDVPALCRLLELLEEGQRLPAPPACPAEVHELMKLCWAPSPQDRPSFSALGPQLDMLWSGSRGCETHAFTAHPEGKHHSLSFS

[6] = molecular target: Tyrosine-protein kinase JAK2 (Homo sapiens) (UniProt O60674); assay: Inhibition of human recombinant N-terminal His-tagged JAK2 (826 to 1132 residue) expressed in baculovirus expression system at 100 uM using Srctide as substrate by mobility shift assay relative to control
Chain of Tyrosine-protein kinase JAK2 (Homo sapiens) (O60674 whole entry): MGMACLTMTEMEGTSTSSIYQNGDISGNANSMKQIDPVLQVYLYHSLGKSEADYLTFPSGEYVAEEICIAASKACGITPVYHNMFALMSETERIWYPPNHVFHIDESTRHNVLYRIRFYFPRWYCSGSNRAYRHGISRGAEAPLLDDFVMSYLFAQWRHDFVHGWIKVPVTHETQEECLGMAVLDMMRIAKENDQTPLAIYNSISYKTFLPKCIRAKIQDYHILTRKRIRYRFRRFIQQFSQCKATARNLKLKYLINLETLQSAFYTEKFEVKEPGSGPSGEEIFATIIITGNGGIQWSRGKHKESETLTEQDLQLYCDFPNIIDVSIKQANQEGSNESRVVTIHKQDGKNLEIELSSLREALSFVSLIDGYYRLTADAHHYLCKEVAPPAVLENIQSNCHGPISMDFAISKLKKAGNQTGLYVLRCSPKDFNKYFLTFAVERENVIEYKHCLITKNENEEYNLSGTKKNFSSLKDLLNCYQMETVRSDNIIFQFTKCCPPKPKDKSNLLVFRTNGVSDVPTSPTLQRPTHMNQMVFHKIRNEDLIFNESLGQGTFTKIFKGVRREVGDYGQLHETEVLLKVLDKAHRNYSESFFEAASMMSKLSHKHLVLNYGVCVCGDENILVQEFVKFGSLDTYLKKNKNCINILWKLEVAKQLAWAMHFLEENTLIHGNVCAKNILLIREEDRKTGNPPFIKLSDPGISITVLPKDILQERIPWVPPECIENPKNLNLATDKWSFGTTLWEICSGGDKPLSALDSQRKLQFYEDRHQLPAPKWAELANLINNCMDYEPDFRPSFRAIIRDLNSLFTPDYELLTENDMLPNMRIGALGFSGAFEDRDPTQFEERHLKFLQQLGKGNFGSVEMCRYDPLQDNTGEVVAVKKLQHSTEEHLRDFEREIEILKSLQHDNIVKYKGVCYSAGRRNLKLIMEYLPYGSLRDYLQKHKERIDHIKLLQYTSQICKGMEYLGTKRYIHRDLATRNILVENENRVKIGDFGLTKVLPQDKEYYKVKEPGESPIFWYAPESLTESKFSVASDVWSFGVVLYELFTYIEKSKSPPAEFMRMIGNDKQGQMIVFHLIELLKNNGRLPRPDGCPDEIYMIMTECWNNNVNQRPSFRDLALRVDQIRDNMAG

[7] = test system: MDA-MB-231; assay: Inhibition of JAK/STAT signaling in human MDA-MB-231 cells assessed as decrease in STAT3 phosphorylation incubated for 2 hrs by Western blot analysis; type: cell-based
[8] = test system: MDA-MB-231; assay: Inhibition of JAK/STAT signaling in human MDA-MB-231 cells assessed as decrease in STAT3 phosphorylation by measuring phosphorylated intensity level at 2 uM incubated for 2 hrs by Western blot analysis (reference value: 100%); type: cell-based; parameters: scale not given: the % may be the effect or the level left
[9] = test system: A549; assay: Cytotoxicity against human A549 cells assessed as reduction in cell proliferation measured after 72 hrs by WST8 assay; type: functional, cell-based; settings: A549, 72 h
[10] = test system: MCF7; assay: Cytotoxicity against human MCF7 cells assessed as reduction in cell proliferation measured after 72 hrs by WST8 assay; type: functional, cell-based; settings: MCF7, 72 h
[11] = molecular target: T1, Signal transducer and activator of transcription 3; assay: Inhibition of IL-6 induced STAT3 phosphorylation at Tyr705 residue in human MCF7 cells at 10 uM preincubated for 1 hr followed by IL-6 stimulation and measured after 1 hr by Western blot analysis relative to control; type: cell-based
[12] = molecular target: T1, Signal transducer and activator of transcription 3; assay: Inhibition of IL-6 induced STAT3 phosphorylation at Tyr705 residue in human MCF7 cells assessed as phosphorylation intensity level at 4 uM preincubated for 1 hr followed by IL-6 stimulation and measured after 1 hr by Western blot analysis; type: cell-based; parameters: scale not given: the % may be the effect or the level left
[13] = test system: MDA-MB-231; assay: Cytotoxicity against human MDA-MB-231 cells assessed as reduction in cell proliferation measured after 72 hrs by WST8 assay; type: functional, cell-based; settings: MDA-MB-231, 72 h
[14] = molecular target: T1, Signal transducer and activator of transcription 3; assay: Inhibition of IL-6 induced STAT3 phosphorylation at Tyr705 residue in human MCF7 cells preincubated for 1 hr followed by IL-6 stimulation and measured after 1 hr by Western blot analysis; type: cell-based
[15] = molecular target: T1, Signal transducer and activator of transcription 3; assay: Inhibition of IL-6 induced STAT3 phosphorylation at Tyr705 residue in human MCF7 cells assessed as phosphorylation intensity level at 2 uM preincubated for 1 hr followed by IL-6 stimulation and measured after 1 hr by Western blot analysis; type: cell-based; parameters: scale not given: the % may be the effect or the level left
[16] = test system: MCF7; assay: Effect on total STAT3 level in IL-6 induced human MCF7 cells at 0.5 to 4 uM preincubated for 1 hr followed by IL-6 stimulation and measured after 1 hr by Western blot analysis; type: ADME, cell-based; settings: mcf7, 1 h
[17] = test system: MDA-MB-231; assay: Inhibition of JAK/STAT signaling in human MDA-MB-231 cells assessed as decrease in STAT3 phosphorylation by measuring phosphorylated intensity level at 1 uM incubated for 2 hrs by Western blot analysis (reference value: 100%); type: cell-based; parameters: scale not given: the % may be the effect or the level left
[18] = test system: MDA-MB-231; assay: Inhibition of JAK/STAT signaling in human MDA-MB-231 cells assessed as decrease in STAT3 phosphorylation by measuring phosphorylated intensity level at 4 uM incubated for 2 hrs by Western blot analysis (reference value: 100%); type: cell-based; parameters: scale not given: the % may be the effect or the level left
[19] = molecular target: Tyrosine-protein kinase JAK2 (Homo sapiens) (UniProt O60674); assay: Inhibition of IL-6 induced JAK2 phosphorylation at Tyr1007/1008 residue in human MCF7 cells preincubated for 1 hr followed by IL-6 stimulation and measured after 1 hr by Western blot analysis; type: cell-based
[20] = molecular target: T1, Signal transducer and activator of transcription 3; assay: Inhibition of IL-6 induced STAT3 phosphorylation at Tyr705 residue in human MCF7 cells at 1 uM preincubated for 1 hr followed by IL-6 stimulation and measured after 1 hr by Western blot analysis relative to control; type: cell-based
[21] = molecular target: T1, Signal transducer and activator of transcription 3; assay: Inhibition of IL-6 induced STAT3 phosphorylation at Tyr705 residue in human MCF7 cells assessed as phosphorylation intensity level at 1 uM preincubated for 1 hr followed by IL-6 stimulation and measured after 1 hr by Western blot analysis; type: cell-based; parameters: scale not given: the % may be the effect or the level left
[22] = molecular target: Tyrosine-protein kinase JAK1 (Homo sapiens) (UniProt P23458); assay: Inhibition of human recombinant N-terminal GST-tagged JAK1 (850 to 1154 residue) expressed in baculovirus expression system at 100 uM using JAK1 peptide as substrate by mobility shift assay relative to control
Chain of Tyrosine-protein kinase JAK1 (Homo sapiens) (P23458 whole entry): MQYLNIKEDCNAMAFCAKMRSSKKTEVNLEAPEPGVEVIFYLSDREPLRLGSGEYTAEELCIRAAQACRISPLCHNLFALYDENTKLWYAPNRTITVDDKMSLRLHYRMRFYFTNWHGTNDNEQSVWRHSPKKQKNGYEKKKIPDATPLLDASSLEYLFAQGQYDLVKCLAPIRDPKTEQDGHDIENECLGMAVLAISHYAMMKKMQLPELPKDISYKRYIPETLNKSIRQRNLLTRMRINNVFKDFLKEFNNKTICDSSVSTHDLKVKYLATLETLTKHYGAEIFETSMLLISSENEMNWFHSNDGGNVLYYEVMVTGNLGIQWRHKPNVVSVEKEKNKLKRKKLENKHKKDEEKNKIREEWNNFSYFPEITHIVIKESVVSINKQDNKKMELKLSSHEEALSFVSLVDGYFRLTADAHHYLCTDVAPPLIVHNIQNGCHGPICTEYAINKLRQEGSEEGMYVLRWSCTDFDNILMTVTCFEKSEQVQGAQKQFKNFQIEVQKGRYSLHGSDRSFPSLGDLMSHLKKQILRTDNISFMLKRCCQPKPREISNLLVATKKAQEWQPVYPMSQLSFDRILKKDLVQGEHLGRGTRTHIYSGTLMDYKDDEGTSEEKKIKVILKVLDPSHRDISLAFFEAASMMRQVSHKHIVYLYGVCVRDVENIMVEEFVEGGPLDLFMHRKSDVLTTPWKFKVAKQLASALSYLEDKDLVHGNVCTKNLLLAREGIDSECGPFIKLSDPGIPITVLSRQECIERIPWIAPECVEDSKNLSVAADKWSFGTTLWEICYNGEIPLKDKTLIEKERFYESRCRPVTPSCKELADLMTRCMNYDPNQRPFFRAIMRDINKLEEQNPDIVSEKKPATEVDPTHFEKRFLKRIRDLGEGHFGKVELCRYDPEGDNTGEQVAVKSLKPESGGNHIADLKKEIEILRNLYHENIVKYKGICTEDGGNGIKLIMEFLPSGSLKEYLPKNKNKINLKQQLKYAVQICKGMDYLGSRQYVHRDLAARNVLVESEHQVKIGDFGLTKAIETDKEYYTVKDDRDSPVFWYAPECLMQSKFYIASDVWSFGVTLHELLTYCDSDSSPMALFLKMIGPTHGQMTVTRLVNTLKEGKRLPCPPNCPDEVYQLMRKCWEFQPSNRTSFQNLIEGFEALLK

| Activity [1] [%] | inhibition [11] | Activity [12] [%] | Activity [15] [%] | inhibition [20] | Activity [21] [%] | SMILES | IC50 [9] [nM] | IC50 [10] [nM] | IC50 [13] [nM] | Activity [16] | also measured |
| --- | --- | --- | --- | --- | --- | --- | --- | --- | --- | --- | --- |
| 76 | 100% | 3 | 43 | Active | 75 | C[C@H](O)c1cc2c(o1)C(=O)c1cccc(O)c1C2=O | 130 | 500 | 410 | Non-Toxic | Activity [2]: 68%; inhibition [3]: inactive; inhibition [4]: inactive; inhibition [5]: inactive; inhibition [6]: 80.6%; inhibition [7]: Dose-dependent effect; Activity [8]: 21%; IC50 [14]: 2000 nM; Activity [17]: 78%; Activity [18]: 35%; inhibition [19]: Dose-dependent effect; inhibition [22]: 94.8% |
|  | 100% |  |  | Active |  | C[C@H](O)c1cc2c(o1)C(=O)c1c(O)cccc1C2=O | 280 | 1110 | 330 |  |  |
|  | inactive |  |  | inactive |  | CC1(C)CCC2=C(O1)c1ccccc1C(=O)C2=O [LAPACHONE] | 1960 | 710 | 1390 |  |  |
| 36 |  | 35 | 20 |  | 23 | C[C@H](O)c1cc2c(o1)C(=O)c1ccccc1C2=O | 720 | 280 | 1590 | Non-Toxic |  |
| 107 |  | 23 | 38 |  | 84 | CC(=O)c1cc2c(o1)C(=O)c1cccc(O)c1C2=O | 44 | 51 | 170 | Non-Toxic | IC50 [14]: 2000 nM |
|  | inactive |  |  | inactive |  | CC1(C)CCC2=C(O1)C(=O)c1ccccc1C2=O [ALPHA-LAPACHONE] | > 30000 | > 30000 | > 30000 |  |  |
|  |  |  |  |  |  | CC(=O)c1cc2c(o1)C(=O)c1ccccc1C2=O [NAPABUCASIN] | 120 | 240 | 250 | Non-Toxic | Activity [2]: 111%; inhibition [5]: inactive; inhibition [6]: 84.7%; inhibition [7]: Dose-dependent effect; Activity [8]: 48%; Activity [17]: 107%; Activity [18]: 28%; inhibition [22]: 95.5% |

| SMILES | Activity [1] [%] | inhibition [11] | Activity [12] [%] | Activity [15] [%] | inhibition [20] | Activity [21] [%] | IC50 [9] [nM] | IC50 [10] [nM] | IC50 [13] [nM] | Activity [16] | also measured |
| --- | --- | --- | --- | --- | --- | --- | --- | --- | --- | --- | --- |
| CC(C)=CCC1=C(O)C(=O)c2ccccc2C1=O [LAPACHOL] |  | inactive |  |  | inactive |  | > 30000 | > 30000 | > 30000 |  |  |
